This note sets out measurements from PubChem BioAssay AID463203 (Broad Institute, 2010).

The source made the active and inactive calls.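 How the source made its calls: active means more than half of replicate measurements showing over 20% loss of kinase signal relative to plate controls; inconclusive means some but at most half of replicates over 20% loss; inactive means no replicate over 20% signal loss.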 Bounds are passed on as bounds.

In the assay the target is Glycogen synthase kinase-3 alpha (Homo sapiens) (UniProt P49840). Kind of assay: concentration-response blocking of human GSK3A – biochemical, luminescence, cell-free homogeneous, retest, dose response (AID 463203). The settings on record: GSK-3 alpha enzyme, ADP-Glo luminescence, 60 min.
Sequence of Glycogen synthase kinase-3 alpha (Homo sapiens) (P49840 whole entry, looked up): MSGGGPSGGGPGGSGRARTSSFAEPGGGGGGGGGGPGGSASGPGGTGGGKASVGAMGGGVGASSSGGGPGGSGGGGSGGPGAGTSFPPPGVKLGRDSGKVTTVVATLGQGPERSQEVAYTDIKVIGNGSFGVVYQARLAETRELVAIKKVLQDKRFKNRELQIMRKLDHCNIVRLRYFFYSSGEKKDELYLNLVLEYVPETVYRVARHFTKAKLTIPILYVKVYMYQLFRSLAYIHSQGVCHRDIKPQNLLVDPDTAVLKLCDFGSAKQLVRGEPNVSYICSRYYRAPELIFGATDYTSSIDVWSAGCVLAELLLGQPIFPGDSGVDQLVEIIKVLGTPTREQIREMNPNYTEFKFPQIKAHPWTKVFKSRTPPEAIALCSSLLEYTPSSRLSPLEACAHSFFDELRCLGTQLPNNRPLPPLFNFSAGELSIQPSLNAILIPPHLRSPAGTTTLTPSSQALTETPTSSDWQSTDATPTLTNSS

Consider `CCn1c(SCC(=O)N/N=C/C=C\c2ccco2)nc2ccccc21`, for which the AC50 was > 30 µM (inactive).
With `CCOc1ccc(-n2c(SCC(=O)Nc3ccccc3C)n[nH]c2=O)cc1`, the AC50 was > 30 µM (inactive).
Take `CC(=O)Nc1ccc(NS(=O)(=O)c2cccc3nonc23)cc1`: the AC50 was > 30 µM (inactive).
For `CCCCn1c(O)c(C(CC)=NCCCn2ccnc2)c(=O)[nH]c1=O` the value was 13.9 µM; for `Nc1nc(Nc2ccc(Cl)cc2)n[nH]1`, > 30 µM (inactive).
For the compound `CC1(C)CC(=O)C(C(C2=C(O)CC(C)(C)CC2=O)c2ccco2)C(=O)C1` (configuration not stated), the AC50 was > 30 µM (inactive).
Under `Cn1cc(C(=O)c2cccc(Cl)c2)cc1/C=N\O` stands 28.3 µM; under `O=c1cc(-c2ccncc2)oc2c1ccc1ccccc12`, 0.312 µM; under `CC(=O)C(Sc1ccc2nnc(-c3ccc(C)cc3)n2n1)C(C)=O`, > 30 µM (inactive).
Under `CN(C)CCCNc1oc(-c2ccccc2)nc1C#N` stands > 30 µM (inactive); under `Cc1nc(SCC(=O)NCC2CCCO2)c2c(C)c(C)sc2n1` (configuration not stated), > 30 µM (inactive).
As to `Cc1cc(NC(=O)c2cccc(S(=O)(=O)N3CC(c4ccccc4)CC3=O)c2)no1` (configuration not stated), the AC50 is > 30 µM (inactive).
Regarding `Cc1ccc2c(c1)Oc1ccc(NC(=O)CCCl)cc1C(=O)N2`, the AC50 was > 30 µM (inactive).
For `O=C(Cn1c(NCCO)nc2ccccc21)NCC1CCCO1` (configuration not stated) the value was > 30 µM (inactive); for `O=c1ccc(-c2nc3ccccc3n2Cc2ccc(Cl)cc2)c[nH]1`, > 30 µM (inactive).
For `COc1ccc(OCc2nc(N)nc(Nc3cccc(C)c3C)n2)cc1` the value was > 30 µM (inactive).
In the case of `CCCCOc1ccc(-c2nnc(N)s2)cc1`, the AC50 is > 30 µM (inactive).
Under `O=C(CSc1nnc(-c2ccc(O)cc2)o1)Nc1ccc2c(c1)OCCO2` stands 0.463 µM; under `COc1ccccc1-n1c(O)c(C=NCCCn2ccnc2)c(=O)[nH]c1=O`, 18.1 µM.
Under `CCOc1c(O)ccc(/C=C2\SC(=S)NC2=O)c1[N+](=O)[O-]` stands 20.8 µM.
In the case of `O=C(CCSc1nc(-c2ccco2)cc(C(F)(F)F)n1)NCc1cccs1`, the AC50 is > 30 µM (inactive).
`O=C(Nc1cc(F)cc(F)c1)c1ccc(NCCCN2CCCCCC2)c([N+](=O)[O-])c1`: the AC50 was > 30 µM (inactive).
For `COc1ccc(C(=O)c2ccccc2Cl)cc1` the value was > 30 µM (inactive); for `CC(CC(=O)Nc1ncc([N+](=O)[O-])s1)c1ccccc1` (configuration not stated), 5.94 µM.
For `CCOc1cc(/C=N/NC(=O)N/N=C/c2ccc(O)c(OCC)c2)ccc1O` the value was > 30 µM (inactive); for `Cc1oc2ccc(O)cc2c1C(=O)c1ccc(F)cc1`, > 30 µM (inactive); for `Cc1nnc(SCC(=O)N2c3ccccc3CC2C)s1` (configuration not stated), > 30 µM (inactive).
Consider `Cc1cc(NC(=O)COC(=O)c2cc(S(=O)(=O)N3CCOCC3)ccc2N2CCCCC2)no1`, for which the AC50 was 10.1 µM.
Under `N#CC1=C2SCN(Cc3ccco3)CN2C(=O)CC1c1ccccc1F` (configuration not stated) stands > 30 µM (inactive); under `O=[N+]([O-])c1cc(S(=O)(=O)c2ccc(N3CCCCC3)c([N+](=O)[O-])c2)ccc1N1CCCCC1`, > 30 µM (inactive); under `CCOC(=O)c1cc(CC)sc1NC(=O)C1CC1`, > 30 µM (inactive).
For `C=CCn1c(O)c(C=NCCCn2ccnc2)c(=O)[nH]c1=O` the value was 14 µM; for `CCOC(=O)N1CCC(N2CCN(S(=O)(=O)c3ccc4ccccc4c3)CC2)CC1`, > 30 µM (inactive).
Under `CCCCCCN=C(CC)c1c(O)n(CCCC)c(=O)[nH]c1=O` stands > 30 µM (inactive).
On to `Cn1c(=O)c2c(nc(NCC3CCCO3)n2Cc2ccccc2)n(C)c1=O` (configuration not stated), for which the AC50 is > 30 µM (inactive).
As to `CC(C)CCNc1nc(N)c([N+](=O)[O-])c(N2CCCCCC2)n1`, the concentration at half-maximal activity (AC50) is 8.86 µM.
For the compound `O=C(Nc1cccc(Cl)c1N1CCCC1)c1ccc(Br)o1`, the AC50 is > 30 µM (inactive).
